Results on three compounds are retold here after patent US4206217A, “3-[4-(1,3-Diazacycloalken-2-yl)-phenyl]-1,2-benzisothiazoles, their manufacture, and drugs containing these compounds” (BASF Aktiengesellschaft, priority 1977, dated 1980).

Structures can show the parent of a compound that is named as a salt.

The test system of one data set is isolated auricle. In words: Stimulation time/tension relationship (isolated auricle). An excerpt: In test models used in respect of the antiarrhythmic effect, the following findings were obtained: Stimulation time/tension relationship (isolated auricle): […]
The test system of data set [1] is ventricular fibrillation threshold. The experiment in a line: Ventricular fibrillation threshold in guinea pigs. Type of data set: in vivo, guinea pig. As to conditions: intravenous administration. From the text:
Ventricular fibrillation threshold in guinea pigs:

Data set [2] has as its system aconitine-induced arrhythmia. In words: animal or person. Type of data set: in vivo, rat (Sprague Dawley). As to conditions: for ED50: Rattus norvegicus, po, read-out: Antiarrhythmic effect: effective dose ED 50%; for Maximum effect: Δ% (increase in duration of aconitine infusion): effect of the maximum nontoxic dose (215 for Examples 2 and 3; 681 for procainamide); for Maximum effect: Δ% (increase in duration of aconitine infusion) / Antiarrhythmic effect: R.E. (relative effect) / Maximum effect: R.M.E. (relative maximum effectiveness) / Effect at the maximum dose, higher than that of procainamide / Antiarrhythmic activity greater than that of procainamide: rat, oral; for Antiarrhythmic effect: R.E. (relative effect) / Maximum effect: R.M.E. (relative maximum effectiveness): procainamide = 1.00; for Antiarrhythmic effect: R.E. (relative effect): effective dose; for Effect at the maximum dose, higher than that of procainamide / Antiarrhythmic activity greater than that of procainamide: versus procainamide. On the procedure:
The antiarrhythmic activity of the compounds was determined by orally administering these to rats (Sprague Dawley, weight: 180-240 g) 45 minutes before the start of narcosis (100 mg/kg of thiobutabarbital, administered intraperitoneally).
The arrhythmogenous substance used was aconitine, administered by intravenous infusion (at the rate of 0.005 mg/kg.minute) 60 minutes after administration of the compound of the invention.
For a quantitative evaluation of the linear relation between the logarithm of the dose (mg/kg) of the test substances and the relative increase in the duration of infusion of aconitine (Δ%), the dose which increases the duration of infusion by 50% (ED 50%) was determined.

Another data set can be described thus: in vivo. As to conditions: mouse, in vivo; for LD50 at 168 h: ip. On the procedure: (§1) The acute toxicity was determined on groups of 10 or 20 female Swiss mice weighing 20-26 g, using intraperitoneal administration. The LD 50 was calculated (Probit analysis) as the dose following which 50% of the animals died within 7 days.
The subject of the next data set is female Swiss mice. In words: in vivo. As to conditions: versus procainamide. The method, then: as §1

The term LD50 denotes the dose at which mortality reaches 50%. A lower LD50 goes with greater toxicity. As for `c1ccc2c(-c3ccc(C4=NCCCN4)cc3)nsc2c1` [Example 2, 3-[4-(Tetrahydropyrimidin-2-yl)-phenyl]-1,2-benzisothiazole hydrochloride], in the data set on isolated auricle, the “Stimulation time/tension relationship, effect relative to quinidine” value is 1.24 times the effect of quinidine. The “Ventricular fibrillation threshold, effect relative to quinidine” value in data set [1] is 1.8 times the effect of quinidine. In data set [2], the ED50 is 31.2 mg/kg, the “Maximum effect: Δ% (increase in duration of aconitine infusion)” value was 289%, the “Antiarrhythmic effect: R.E. (relative effect)” value was 5.03 and the “Maximum effect: R.M.E. (relative maximum effectiveness)” value worked out at 2.14. Moreover, in data set [2], the “Effect at the maximum dose, higher than that of procainamide” value is 114% and the “Antiarrhythmic activity greater than that of procainamide” value is “about 5 times”. Besides, in “in vivo”, the selectivity ratio was 4.03 and the LD50 at 168 h came out at 126 mg/kg. Also, the “Therapeutic range (LD 50 / ED 50%) greater than for procainamide” value in the data set on female Swiss mice is recorded as 4 times.

In the case of `CC1CN=C(c2ccc(-c3nsc4ccccc34)cc2)N1` (stereo not drawn) [Example 3, 3-[4-(Methylimidazolin-2-yl)-phenyl]-1,2-benzisothiazole hydrochloride], the “Stimulation time/tension relationship, effect relative to quinidine” value with isolated auricle is listed as 1.5 times the effect of quinidine. In data set [2], the ED50 was 32.7 mg/kg, the “Maximum effect: Δ% (increase in duration of aconitine infusion)” value is 233%, the “Antiarrhythmic effect: R.E. (relative effect)” value was 4.80 and the “Maximum effect: R.M.E. (relative maximum effectiveness)” value worked out at 1.73. In data set [2], the “Effect at the maximum dose, higher than that of procainamide” value turned out to be 73% and the “Antiarrhythmic activity greater than that of procainamide” value is given as “about 5 times”. Further, in “in vivo”, the selectivity ratio turned out to be 2.76 and the LD50 at 168 h stood at 90.5 mg/kg. In addition, in the data set with female Swiss mice, the “Therapeutic range (LD 50 / ED 50%) greater than for procainamide” value came to 2.8 times.

With `CCN(CC)CCNC(=O)c1ccc(N)cc1` [Procainamide, procainamide, reference compound], in data set [2], the ED50 was 157 mg/kg and the “Maximum effect: Δ% (increase in duration of aconitine infusion)” value is 135%. In addition, in “in vivo”, the LD50 at 168 h is 227 mg/kg.
